From article PMC9848385, “Design, synthesis, molecular modelling and antitumor evaluation of S-glucosylated rhodanines through topo II inhibition and DNA intercalation” (Journal of Enzyme Inhibition and Medicinal Chemistry, 2023)
Several values for one entry are separate records, joined by “and”; a condition that tells them apart may be missing. Equal entries are not always repeated.

Experiments:
[1] = test system: MCF-7 cells; experiment: MTT cytotoxicity assay, MCF-7; format: cell-based; details: Homo sapiens, MCF7, 48 h, read-out: Cytotoxic IC50 MCF-7
Experimental: (§3) Using RPMI-1640 medium L-Glutamine (Lonza Verviers SPRL, Belgium, cat#12-604F), we successfully cultured liver (HepG2), breast (MCF-7), and lung (A549) cells bought from the National Research Institute, Egypt. Each culture was supplemented with 10% foetal bovine serum (FBS, Sigma-Aldrich, MO, USA) and 1% penicillin-streptomycin (Lonza, Belgium). Using a 96-well plate, cells were seeded at a density of 5,000 cells per well in triplicate. The chemicals were added to the cells on day 2 at doses of (0.01, 0.1, 1, 10, and 100 M). To determine cell viability, MTT solution was used after 48 h (Promega, USA)[84]. Using GraphPad Prism 7, as was previously reported in, we computed the survival rate in comparison to the control and obtained the IC50 values[85].

[2] = test system: HepG2 cells; experiment: MTT cytotoxicity assay, HepG2; format: cell-based; details: Homo sapiens, HepG2, 48 h, read-out: Cytotoxic IC50 HepG2
Experimental: as §3

[3] = test system: A549 cells; experiment: MTT cytotoxicity assay, A549; format: cell-based; details: Homo sapiens, A549, 48 h, read-out: Cytotoxic IC50 A549
Experimental: as §3

[4] = target: T1, Topoisomerase II (Homo sapiens, UniProt P11388); experiment: Topoisomerase II inhibition assay; format: biochemical; details: average of three independent replicates, five concentrations
T1 construct: purchased TopoGEN, Inc., Columbus
T1 sequence (P11388 whole entry): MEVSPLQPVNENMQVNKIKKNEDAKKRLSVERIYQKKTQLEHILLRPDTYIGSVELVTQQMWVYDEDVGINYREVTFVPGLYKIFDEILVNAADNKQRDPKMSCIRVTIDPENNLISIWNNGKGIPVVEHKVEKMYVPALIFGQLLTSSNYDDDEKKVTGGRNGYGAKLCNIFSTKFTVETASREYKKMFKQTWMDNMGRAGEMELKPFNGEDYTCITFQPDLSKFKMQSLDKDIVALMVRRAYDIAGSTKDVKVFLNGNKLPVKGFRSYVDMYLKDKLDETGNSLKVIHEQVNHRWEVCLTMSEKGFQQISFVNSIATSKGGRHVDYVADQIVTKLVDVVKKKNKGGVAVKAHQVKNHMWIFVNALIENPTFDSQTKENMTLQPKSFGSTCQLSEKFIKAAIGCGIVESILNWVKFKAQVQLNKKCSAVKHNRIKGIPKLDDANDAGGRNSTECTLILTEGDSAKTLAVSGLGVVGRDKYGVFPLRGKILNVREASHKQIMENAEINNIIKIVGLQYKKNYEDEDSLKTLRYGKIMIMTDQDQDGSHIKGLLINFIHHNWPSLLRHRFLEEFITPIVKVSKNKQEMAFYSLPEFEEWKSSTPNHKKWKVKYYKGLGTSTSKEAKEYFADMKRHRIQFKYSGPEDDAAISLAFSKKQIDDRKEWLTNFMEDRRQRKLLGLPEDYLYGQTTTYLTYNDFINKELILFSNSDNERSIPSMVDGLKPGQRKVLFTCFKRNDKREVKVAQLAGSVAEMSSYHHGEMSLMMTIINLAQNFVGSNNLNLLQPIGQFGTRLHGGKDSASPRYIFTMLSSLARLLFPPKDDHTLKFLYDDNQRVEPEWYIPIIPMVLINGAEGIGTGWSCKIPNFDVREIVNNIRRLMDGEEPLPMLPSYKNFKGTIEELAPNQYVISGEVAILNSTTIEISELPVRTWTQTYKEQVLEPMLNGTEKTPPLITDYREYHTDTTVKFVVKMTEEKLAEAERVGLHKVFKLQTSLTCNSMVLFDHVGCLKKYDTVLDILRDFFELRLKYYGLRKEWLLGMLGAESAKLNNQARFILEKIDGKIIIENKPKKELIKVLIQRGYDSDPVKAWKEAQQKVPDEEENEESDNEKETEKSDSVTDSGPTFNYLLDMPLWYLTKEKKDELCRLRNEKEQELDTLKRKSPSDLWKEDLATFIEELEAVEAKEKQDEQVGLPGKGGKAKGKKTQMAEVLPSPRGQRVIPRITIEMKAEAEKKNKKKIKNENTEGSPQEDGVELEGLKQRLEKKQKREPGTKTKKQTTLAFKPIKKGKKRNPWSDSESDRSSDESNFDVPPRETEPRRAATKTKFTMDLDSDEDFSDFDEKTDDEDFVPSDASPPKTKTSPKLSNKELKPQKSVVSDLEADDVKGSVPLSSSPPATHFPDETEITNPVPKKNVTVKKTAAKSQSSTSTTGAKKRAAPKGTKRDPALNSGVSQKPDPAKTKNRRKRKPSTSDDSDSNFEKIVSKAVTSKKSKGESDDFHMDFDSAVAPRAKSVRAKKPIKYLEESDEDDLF
Experimental: (§1) Topoisomerase II (TopoGEN, Inc., Columbus) and DNA intercalator (methyl green (20 mg) and Calfthymus DNA (10 mg) were tested for their capacity to block the enzyme’s activity. Following equation was used to determine compound inhibition percentages: 100−[A control/A treated−Control)], IC50 was determined using GraphPad prism7 using inhibition curves at five different concentrations of each compound[86].

[5] = test system: Calfthymus DNA; experiment: DNA intercalation assay (DNA/methyl green); format: binding, calf; details: average of three independent replicates, five concentrations
Experimental: as §1

[6] = test system: HepG2 cells; experiment: Annexin V/PI staining flow cytometry (apoptosis); format: cell-based; details: IC50 concentration, 48 h
Experimental: After incubation overnight, 6-well culture plates were populated with HepG2 cells (3–5 10^5 cells/well). […] Cells and medium supernatants were then collected and washed in ice-cold PBS. The next step was suspending the cells in 100 µL of annexin binding buffer solution "25 mM CaCl2, 1.4 M NaCl, and 0.1 M Hepes/NaOH, pH 7.4” and incubation with “Annexin V-FITC solution (1:100) and propidium iodide (PI)” at a concentration equals 10 µg/mL in the dark for 30 min. The Cytoflex FACS system was then used to acquire the stained cells. cytExpert was used for the statistical analysis.

[7] = test system: HepG2 cells; experiment: DNA content flow cytometry cell cycle analysis; format: cell-based; details: IC50 concentration, 48 h, control 39.15%
[8] = test system: P53; experiment: RT-PCR gene expression, P53; format: cell-based; details: HepG2 cells, IC50, 48 h; normalized to β-actin; untreated = 1
Experimental: (§2) The gene expression of P53, Bax, Caspasses-3,8,9 as proapoptotic genes and Bcl-2 as an anti-apoptotic gene were evaluated to investigate the apoptotic pathway. […] Afterwards, the standard operating procedure called for an RT-PCR reaction to be performed. The Ct values were then used to determine the relative expression of each gene in each sample, normalised to the β-actin as house-keeping gene[90–92].

[9] = test system: Bax; experiment: RT-PCR gene expression, Bax; format: cell-based; details: HepG2 cells, IC50, 48 h; normalized to β-actin; untreated = 1
Experimental: as §2

[10] = test system: Casp-3; experiment: RT-PCR gene expression, Casp-3; format: cell-based; details: HepG2 cells, IC50, 48 h; normalized to β-actin; untreated = 1
Experimental: as §2

[11] = test system: Casp-8; experiment: RT-PCR gene expression, Casp-8; format: cell-based; details: HepG2 cells, IC50, 48 h; normalized to β-actin; untreated = 1
Experimental: as §2

[12] = test system: Casp-9; experiment: RT-PCR gene expression, Casp-9; format: cell-based; details: HepG2 cells, IC50, 48 h; normalized to β-actin; untreated = 1
Experimental: as §2

[13] = test system: Bcl-2; experiment: RT-PCR gene expression, Bcl-2; format: cell-based; details: HepG2 cells, IC50, 48 h; normalized to β-actin; untreated = 1
Experimental: as §2

[14] = MTT cytotoxicity assay, MCF-7; format: cell-based; details: human, MCF-7 breast cells, read-out: Cytotoxic IC50 MCF-7
Experimental: as §3

[15] = MTT cytotoxicity assay, HepG2; format: cell-based; details: human, HepG2 liver cells, read-out: Cytotoxic IC50 HepG2
Experimental: as §3

[16] = MTT cytotoxicity assay, A549; format: cell-based; details: human, A549 lung cells, read-out: Cytotoxic IC50 A549
Experimental: as §3

| SMILES | melting point [°C] | IC50 [1] [µM] | IC50 [2] [µM] | IC50 [3] [µM] | other results |
| --- | --- | --- | --- | --- | --- |
| O=C1NC(=S)S/C1=C\c1ccc(Cl)cc1Cl [Compound 3b, 5-((Z)-2,4-dichlorobenzylidene)-2-thioxo-4-thiazolidinone] | – | 17.9 | 7.8 | 9.7 | – |
| COc1ccc(/C=C2\SC(=S)NC2=O)cc1 [Compound 3d, 5-((Z)-4-methoxybenzylidene)-2-thioxo-4-thiazolidinone] | – | 15.1 | 18.1 | 7.8 | – |
| O=C1NC(=S)S/C1=C\c1ccc2c(c1)OCO2 [Compound 3f, 5-((Z)-3,4-methylenedioxybenzylidene)-2-thioxo-4-thiazolidinone] | – | 12.8 | 8.9 | 21.1 | – |
| CC(=O)OC[C@H]1O[C@@H](N2C(=O)CSC2=S)[C@H](OC(C)=O)[C@@H](OC(C)=O)[C@@H]1OC(C)=O [Compound 6, 3-(2',3',4',6'-Tetra-O-acetyl-β-D-glucopyranosyl)-2-thioxo-4-thiazolidinone] | – | 11.7 | 0.21 | 1.7 | IC50 [4]: 6.9 µM; IC50 [5]: 19.6 µM; Activation of apoptotic cell death versus untreated control [6]: 80.7 fold; Early apoptosis (AV+/PI-) [6]: 23.07%; Late apoptosis (AV+/PI+) [6]: 11.66%; Total apoptosis ([6]; untreated control 0.43%): 34.73%; Cell population at S-phase [7]: 49.6%; Fold Change = 2^-ΔΔCT P53 [8]: 6.16 fold and 6.16 ± 0.69 fold; Fold Change = 2^-ΔΔCT Bax [9]: 5.7 fold and 5.7 ± 0.26 fold; Fold Change = 2^-ΔΔCT Casp-3 [10]: 8.3 fold and 8.3 ± 0.37 fold; Fold Change = 2^-ΔΔCT Casp-8 [11]: 3.29 fold and 3.29 ± 0.5 fold; Fold Change = 2^-ΔΔCT Casp-9 [12]: 6.14 fold and 6.14 ± 0.19 fold; Fold Change = 2^-ΔΔCT Bcl-2 [13]: 0.36 fold and 0.36 ± 0.01 fold |
| CC(=O)OC[C@H]1O[C@@H](SC2=NC(=O)CS2)[C@H](OC(C)=O)[C@@H](OC(C)=O)[C@@H]1OC(C)=O [Compound 7] | – | – | – | – | IC50 at 48 h [14]: 12.4 µM; IC50 at 48 h [15]: 0.76 µM; IC50 at 48 h [16]: 0.31 µM; IC50 [4]: 9.1 µM; IC50 [5]: 29.6 µM |
| O=C1CSC(=S)N1CN1CCOCC1 [Compound 10, 3-morpholinomethyl-2-thioxo-4-thiazolidinone] | – | – | – | 36.4 | – |
| CSC1NC(=O)CS1 (stereo not shown) [Compound 11, 2-methylmercapto-4-thiazolidinone] | 72 to 74 | – | – | – | – |
| CC(=O)OC[C@H]1O[C@@H](SC2=NC(=O)/C(=C/c3ccc4c(c3)OCCO4)S2)[C@H](OC(C)=O)[C@@H](OC(C)=O)[C@@H]1OC(C)=O [Compound 13c, 5-((Z)-2,4-ethylenedioxybenzylidene)-2–(2',3',4',6'-tetra-O-acetyl-β-D-glucopyranosyl)-2-thioxo-4-thiazolidinone] | – | – | 21.2 | 4.1 | – |
| O=C1NC(=O)/C(=C/c2ccc(Cl)cc2Cl)S1 [Compound 14, 5-((Z)-2,4-dichlorobenzylidene)-2,4-thiazolidindione] | – | 42.2 | 37.3 | 31.6 | – |
| COc1cccc2c1C(=O)c1c(O)c3c(c(O)c1C2=O)C[C@@](O)(C(=O)CO)C[C@@H]3O[C@H]1C[C@H](N)[C@H](O)[C@H](C)O1 [Doxorubicin, reference compound] | – | 7.67 | – | 6.62 | IC50 [5]: 31.3 µM |

Continued, in another order:

| melting point [°C] | SMILES | IC50 [1] [µM] | IC50 [2] [µM] | IC50 [3] [µM] | other results |
| --- | --- | --- | --- | --- | --- |
| 208 to 210 | O=C1NC(=S)S/C1=C\c1ccc2c(c1)OCCO2 [Compound 3c, 5-((Z)-3,4-ethylenedioxybenzylidene)-2-thioxo-4-thiazolidinone] | 7.1 | 11.7 | 13.7 | – |
| 199 to 201 | COc1cccc(/C=C2\SC(=S)NC2=O)c1O [Compound 3e] | 3.1 | 16.3 | 7.7 | – |
| 166 to 168 | CC(=O)OCC1OC(SC2=NC(=O)C(=Cc3ccccc3)S2)C(OC(C)=O)C(OC(C)=O)C1OC(C)=O [Compound 13a, 5-((Z)-benzylidene)-2–(2',3',4',6'-tetra-O-acetyl-β-D-glucopyranosyl)-2-thioxo-4-thiazolidinone] | 3.1 | 17.2 | 6.1 | IC50 [4]: 8.3 µM; IC50 [5]: 22.6 µM |
| 167 to 169 | CC(=O)OCC1OC(SC2=NC(=O)C(=Cc3ccc(Cl)cc3Cl)S2)C(OC(C)=O)C(OC(C)=O)C1OC(C)=O [Compound 13b, 5-((Z)-2,4-dichlorobenzylidene)-2–(2',3',4',6'-tetra-O-acetyl-β-D-glucopyranosyl)-2-thioxo-4-thiazolidinone] | 13.1 | 7.2 | 10.1 | – |
